Tests used:
[1] = target: T1, NanoLuc (Oplophorus gracilirostris, UniProt Q9GV45, A31E/A60N/A81I/F95D/I117V/K70R/L54V/L99Q/M102K/N193R/P142E/Q151K/Q38R/Q45L/V71I/Y165I); experiment: Evaluation of luminescence brightness, NanoLuc expressed in COS-7 cells (live cells and lysates); type: cell-based; conditions: COS-7 live cells and lysates (FIGS. 10, 11); 100 μM diluted luminescent substrate solution
T1 construct: host or cells: COS-7
Experimental: (§1) For luminescence measurements, the IVIS Imaging System purchased from PerkinElmer (old name: Caliper Life Sciences) was used.
(§2) As live cells expressing luminescent enzymes, COS-7 cells derived from the kidney of an African green monkey were used, and the evaluations were also conducted with the lysates produced by the lysis of these live cells.
(§3) The COS-7 cells derived from the kidney of the African green monkey were seeded in a 6-well microplate and were cultured in a CO2 incubator until 70% of the bottom area was covered by the cells. Using TransIT-LT1 reagent (Mirus), the plasmid encoding each of the following marine bioluminescent enzymes was transiently expressed in cells in each well.
(§4) After this lipofection, the cells were cultured in a CO2 incubator for one day. The cells were then subcultured into a 96-well microplate and further incubated for one day.
(§5) The wells with cells transfected with the same plasmid were conceptually divided into two, where one was used for lysate experiments and the other for live cell experiments. For the lysate, first, the cell medium was removed from the 96-well microplate, and then 40 μL of cell lysis reagent (lysate) available from Promega K. K. was injected into each well and the plate was incubated for 15 minutes. For the live cell experiments, after the cell medium was completely removed, the microplate was immediately sealed to prevent the sample evaporation until the luminescence measurements.
(§6) Each luminescent substrate was first dissolved in methanol (PEG400, 25%) to 5 mM (stock solution), which was further diluted with phosphate-buffered saline (PBS) to 100 μM (this solution is hereinafter referred to as diluted luminescent substrate solution). This “diluted luminescent substrate solution” was dispensed in advance into each empty well of a 96-well microplate. […] The bioluminescence brightness from the 96-well black frame microplate was measured, and analyzed using the dedicated software Living Image ver. […]

[2] = test system: ALuc16; experiment: Evaluation of luminescence brightness, ALuc16 expressed in COS-7 cells (live cells and lysates); type: cell-based, luminescent plankton; conditions: COS-7 live cells and lysates (FIGS. 1, 2); 100 μM diluted luminescent substrate solution
Experimental: as §1, §2, §3, §4, §5, §6

[3] = test system: Renilla luciferase 8.6-535SG (RLuc8.6SG); experiment: Evaluation of luminescence brightness, RLuc8.6SG expressed in COS-7 cells (live cells and lysates); type: cell-based, Renilla reniformis; conditions: COS-7 live cells and lysates (FIGS. 7, 8); 100 μM diluted luminescent substrate solution
Experimental: as §1, §2, §3, §4, §5, §6

[4] = test system: ALuc47; experiment: Evaluation of luminescence brightness, ALuc47 expressed in COS-7 cells (live cells and lysates); type: cell-based, luminescent plankton; conditions: 100 μM diluted luminescent substrate solution
Experimental: as §1, §2, §3, §4, §5, §6

[5] = target: T1, NanoLuc; experiment: Evaluation of bioluminescence spectrum, NanoLuc lysate; type: biochemical; conditions: COS-7 lysate (FIG. 12)
Experimental: Measurements were conducted using the luminescence spectrum device AB-1850 available from ATTO Corporation.
The measured spectra were obtained with a measurement parameter-tuned detector.
The COS-7 cells were seeded in a 6-well microplate and were cultured in a CO2 incubator until 70% of the bottom area was covered by the cells. Using TransIT-LT1 reagent (Mirus), the plasmid encoding each of the following marine bioluminescent enzymes was transiently expressed in cells in each well.
After this lipofection, the cells were cultured in a CO2 incubator for one day. After the cell medium was completely removed from the 6-well microplate, 200 μL of cell lysis reagent (lysate) available from Promega K. K. was added to each well and the microplate was incubated at room temperature for 15 minutes.
Twenty microliters of this lysate were dispensed into each PCR tube, and 20 μL of the 100 μM diluted luminescent substrate solution was added at the time of luminescence brightness evaluation. The PCR tubes were immediately placed in a spectrophotometer (AB-1850, ATTO Corporation), and the bioluminescence spectrum was measured in the high-sensitivity mode with integration modes of 0.5 seconds, 5 seconds, 10 seconds, and 30 seconds. […]

[6] = test system: ALuc16, ALuc47, RLuc8.6SG, NanoLuc; experiment: Enzyme specificity from luminescence brightness across the luminescent enzymes; type: cell-based; conditions: comparison of luminescence among ALuc16, ALuc47, RLuc8.6SG
Experimental: as §1, §2, §3, §4
The wells with cells transfected with the same plasmid were conceptually divided into two, where one was used for lysate experiments and the other for live cell experiments. […] For the live cell experiments, after the cell medium was completely removed, the microplate was immediately sealed to prevent the sample evaporation until the luminescence measurements. […]

[7] = COS-7 live cells and lysates (FIGS. 4, 5)

T1 sequence (Q9GV45 28-196 with tags or gaps with the stated changes limits assumed): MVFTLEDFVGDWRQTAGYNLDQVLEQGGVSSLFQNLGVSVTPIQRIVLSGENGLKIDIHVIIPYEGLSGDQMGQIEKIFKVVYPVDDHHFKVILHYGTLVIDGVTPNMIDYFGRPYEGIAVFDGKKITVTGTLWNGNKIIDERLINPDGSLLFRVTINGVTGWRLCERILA

In the case of `O=c1c(Cc2ccc(O)cc2)nc2c(Sc3ccc(F)cc3)[nH]c(-c3ccc(O)cc3)cn1-2` [structural formula (2-2)], the “luminescence for NanoLuc” value [1] is reported as “slight luminescence”, the “luminescence for ALuc16” value [2] is reported as “luminescence activity” and the “luminescence for RLuc8.6SG” value [3] is reported as “luminescence activity”. For the same molecule, the “luminescence for ALuc47” value ([4]; COS-7 live cells (FIG. 4 only cited)) was “slight luminescence”.

`O=c1c(Cc2ccc(O)cc2)nc2c(Sc3ccccc3)[nH]c(-c3ccc(O)cc3)cn1-2` [structural formula (2-1)] was tested, and the “luminescence for NanoLuc” value [1] was “luminescence activity”, the “luminescence for ALuc16” value [2] was “luminescence activity” and the “luminescence spectral peak for NanoLuc” value [5] was 507 nm. The “luminescence for RLuc8.6SG” value [3] was “luminescence activity” and the “luminescence for ALuc47” value [4, 7] was “also showed luminescence”.

With `O=c1c(Cc2ccc(O)cc2)nc2c(Cc3ccccc3)[nH]c(-c3ccc4c(c3)OCCO4)cn1-2` [structural formula (1-1)] the “luminescence for NanoLuc” value [1] was “no luminescence activity”, the “luminescence for ALuc16” value [2] was “high luminescence at high brightness” and the enzyme specificity [6] was “enzyme specificity for ALuc16”. For the same molecule, the “luminescence for RLuc8.6SG” value [3] was “slight luminescence” and the “luminescence for ALuc47” value [4, 7] was “slight luminescence”.

Source: US20250171450A1, “NOVEL COELENTERAZINE DERIVATIVES” (National Institute of Advanced Industrial Science and …, priority 2022, published 2025)
